Measurements reported in publication PMC10441460, “Identification of Selective ATP-Competitive CMG Helicase Inhibitors for Cancer Intervention that Disrupt CMG-Replisome Function” (Research Square, 2023).

Tests used:
[1] = test system: T1, human CMG helicase (Cdc45-MCM-GINS; Mcm2-7 ATPase core); assay: DNA fork-unwinding helicase assay, dose-dependent suppression; format: biochemical
T1 construct: 11-subunit hCMG holoenzyme co-expressed by baculovirus in insect cells (Cdc45, Mcm2-7, GINS); with Cdc45 and GINS (Sld5, Psf1, Psf2, Psf3)

[2] = test system: T2, Nc1ncnc2c1ncn2[C@@H]1O[C@H](COP(=O)(O)OP(=O)(O)OP(=O)(O)O)[C@@H](O)[C@H]1O; assay: helicase kinetics with increasing ATP (Km); format: biochemical, Homo sapiens; conditions: Mg2+ MCM ATPase clefts formed between adjacent MCM subunit pairs
T2 construct: 11-subunit hCMG holoenzyme co-expressed by baculovirus in insect cells (Cdc45, Mcm2-7, GINS); with Cdc45 and GINS (Sld5, Psf1, Psf2, Psf3)

**Q.** For `Nc1ncnc2c1ncn2[C@@H]1O[C@H](COP(=O)(O)OP(=O)(O)OP(O)(O)=S)[C@@H](O)[C@H]1O` [ATP-γ-S], which “DNA fork-unwinding helicase assay, dose-dependent suppression” value [1] is on record?
**A.** The value was “dose-dependent suppression of fork-unwinding activity in the presence of slow-hydrolyzable ATP-γ-S”.

**Q.** With “human CMG helicase (Cdc45-MCM-GINS; Mcm2-7 ATPase core) (Homo sapiens)” as the molecule, how does the Km [2] read?
**A.** Its Km is 690 µM.
